Test results as given in publication PMC8291587, “Guanidine Derivatives: How Simple Structural Modification of Histamine H3R Antagonists Has Led to the Discovery of Potent Muscarinic M2R/M4R Antagonists” (ACS Chemical Neuroscience, 2021).

Legend:
M2R/M3R = experiment: Ex vivo screening of muscarinic M2R/M3R antagonists on isolated guinea pig ileum (methacholine-induced contraction); settings: methacholine as agonist
Procedure: Another group of guinea pig intestinal receptors able to regulate smooth muscle contraction is that of the muscarinic receptors, including M2R and M3R. All compounds were tested on the muscarinic receptors using the same animal model. This approach is similar to measuring histamine H1R antagonist activity. Methacholine was used as a receptor agonist, while 1,1-dimethyl-4-diphenylacetoxypiperidinium iodide (4-DAMP) was used as a reference M3R antagonist. As methacholine is not selective according to M2R and M3R, it is not possible to precisely specify which one was responsible for the effect observed on the tissue preparations. Some authors often attribute the results to the minor M3R subtype (gpM2R:M3R = 4:1 or 5:1), which is generally associated with the contractions,[38] but such an overinterpretation may be misleading, as indicated by our further hM1R-hM5R radioligand binding assay results shown in Table 2. […] These findings partially explain the influence of ADS10227 on the contractility of guinea pig ileum following electrical stimulation. […] In subsequent studies, we tried to clarify this.
Male guinea pigs, weighing 300–400 g, were euthanized by a blow to the neck. A 20–30 cm length of the distal ileum, apart from the terminal 5 cm, was rapidly removed and placed in phosphate buffer at room temperature (pH 7.4) containing (mM) NaCl (136.9), KCl (2.6), KH2PO4 (1.47), Na2HPO4 (9.58), and indomethacin (1 × 10^–6 mol/L)). The intraluminal content was rinsed, and the isolated intestine was cut into 1.5–2 cm segments. The preparations were mounted isotonically in a 20 mL organ bath filled with Tyrode’s buffer: composition (mM) NaCl (137), KCl (2.7), MgCl2·6H2O (1.0), CaCl2 (1.8), NaH2PO4·H2O (0.4), NaHCO3 (11.9), glucose (5.61), and indomethacin (3 × 10^–7 mol/L). The solution was continuously bubbled with a 95% O2:5% CO2 mixture and maintained at 37 °C under a constant load of 0.5 g (Hugo Sachs Hebel–Messvorsatz (Tl-2)/HF-modem; Hugo Sachs Elektronik, Hugstetten, Germany) connected to a pen recorder (Kipp & Zonen BD41, Delft, Holland). During an equilibration period of 40 min, Tyrode’s buffer was changed every 10 min. The first cumulative concentration–response curve was determined for methacholine (10 nM to 3 mM) at increasing concentrations spaced by 3- or 3.3-fold. The second to the fourth (or fifth) curves were measured in the presence of an increasing concentration of antagonist (incubation time 20 min). The pA2 values were calculated according to Arunlakshana and Schild.[37] Statistical analysis was carried out with the Students’ t test. In all tests, a p < 0.05 was considered statistically significant.

H1R [1] = biological target: T1, H1R (Cavia porcellus, UniProt P31389); experiment: Ex vivo screening of histamine H1R antagonists on guinea pig ileum, variant without atropine; settings: isolated guinea pig ileum, histamine as agonist, read-out: H1R pA2 gpi ± sem (converted)
T1 construct: from tissue; host or cells: isolated distal ileum of male guinea pigs
T1 sequence (P31389 whole entry): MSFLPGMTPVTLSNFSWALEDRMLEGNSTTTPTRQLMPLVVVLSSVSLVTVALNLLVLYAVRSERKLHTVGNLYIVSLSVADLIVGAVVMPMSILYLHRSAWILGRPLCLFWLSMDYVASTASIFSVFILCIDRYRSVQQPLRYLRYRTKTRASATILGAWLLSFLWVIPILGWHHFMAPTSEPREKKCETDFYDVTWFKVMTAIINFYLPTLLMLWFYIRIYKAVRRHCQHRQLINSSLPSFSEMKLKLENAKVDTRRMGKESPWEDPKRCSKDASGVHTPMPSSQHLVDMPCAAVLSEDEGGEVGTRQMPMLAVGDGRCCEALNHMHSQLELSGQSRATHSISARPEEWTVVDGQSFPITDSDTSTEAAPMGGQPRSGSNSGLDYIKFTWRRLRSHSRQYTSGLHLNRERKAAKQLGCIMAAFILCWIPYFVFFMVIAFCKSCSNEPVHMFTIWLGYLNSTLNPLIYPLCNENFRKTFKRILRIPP
Procedure: (§1) The second histamine receptor located in the guinea pig ileum is H1R. […] The H1R antagonistic effect was measured on isolated guinea pig ileum stimulated to contract by histamine.[37] To assess and exclude the influence of the ADS compounds on muscarinic receptors, two test variations were used: one with the addition of 0.05 μM atropine and one without.
(§2) Male guinea pigs, weighing 300–400 g, were euthanized by a blow to the neck. A 20–30 cm length of the distal ileum, apart from the terminal 5 cm, was rapidly removed and placed in phosphate buffer at room temperature (pH 7.4) containing (mM) NaCl (136.9), KCl (2.6), KH2PO4 (1.47), Na2HPO4 (9.58), and indomethacin (1 × 10^–6 mol/L). The intraluminal content was rinsed, and the isolated intestine was cut into 1.5–2 cm segments. The preparations were mounted isotonically in a 20 mL organ bath filled with Krebs buffer: composition (mM) NaCl (118), KCl (5.6), MgSO4 (1.18), CaCl2 (2.5), NaH2PO4·H2O (1.28), NaHCO3 (25), glucose (5.55), and indomethacin (3 × 10^–7 mol/L). […] The solution was continuously bubbled with a 95% O2:5% CO2 mixture and maintained at 37 °C under a constant load of 0.5 g (Hugo Sachs Hebel–Messvorsatz (Tl-2)/HF-modem; Hugo Sachs Elektronik, Hugstetten, Germany) connected to a pen recorder (Kipp & Zonen BD41, Delft, Holland). During an equilibration period of 40 min, Krebs buffer was changed every 10 min. The first cumulative concentration–response curve was determined for histamine (10 nM to 10 mM) at increasing concentrations spaced by 3- or 3.3-fold. The second to the fourth (or fifth) curves were measured in the presence of an increasing concentrations of antagonist (incubation time 10 min). The pA2 values were calculated according to Arunlakshana and Schild.[37] Statistical analysis was carried out with the Students’ t test. In all tests, a p < 0.05 was considered statistically significant.

H1R [2] = biological target: T1, H1R; experiment: Ex vivo screening of histamine H1R antagonists on guinea pig ileum, variant with 0.05 μM atropine; settings: isolated guinea pig ileum, histamine as agonist, read-out: H1R+atropine pA2 gpi ± sem (converted)
Procedure: as §1, §2

[3] = system: electrically stimulated guinea pig ileum; experiment: Decrease of contractility in electrically stimulated guinea pig ileum (-log EC50 determination); settings: electrically stimulated guinea pig ileum; for EC50: Cavia porcellus, read-out: Decrease of contractility (-logEC50 ± sem) (converted)
Procedure: A standard ex vivo assay based on the relaxant response of histamine H3R agonists to electrically driven guinea pig ileum was used to test the influence of ADS compounds on the reduction of electrically evoked tissue contraction. […] The −log EC50 value for RAMH and ADS compounds were evaluated. […] Following this, we decided to evaluate the ADS series as potential M2R/M3R ligands on the isolated guinea pig ileum.
Male guinea pigs, weighing 300–400 g, were euthanized by a blow to the neck. A 20–30 cm length of the distal ileum, apart from the terminal 5 cm, was rapidly removed and placed in phosphate buffer at room temperature (pH 7.4) containing (mM) NaCl (136.9), KCl (2.6), KH2PO4 (1.47), Na2HPO4 (9.58), and indomethacin (1 × 10^–6 mol/L)). The intraluminal content was rinsed, and the isolated intestine was cut into 1.5–2 cm segments. The preparations were mounted between two platinum electrodes isotonically in a 20 mL organ bath filled with Krebs buffer: composition (mM) NaCl (118), KCl (5.6), MgSO4 (1.18), CaCl2 (2.5), NaH2PO4·H2O (1.28), NaHCO3 (25), glucose (5.55), and indomethacin (3 × 10^–7 mol/L). The solution was continuously bubbled with a 95% O2:5% CO2 mixture and maintained at 37 °C under a constant load of 1.0 g (Hugo Sachs Hebel–Messvorsatz (Tl-2)/HF-modem; Hugo Sachs Elektronik, Hugstetten, Germany) connected to a pen recorder (Kipp & Zonen BD41, Delft, Holland). During an equilibration period of 60 min, Krebs buffer was changed every 10 min. Following this, the preparations were continuously stimulated at 15–20 V, at a frequency of 0.1 Hz for a duration of 0.5 ms, with rectangular-wave electrical pulses (Grass Stimulator S-88; Grass Instruments Co., Quincy, Massachusetts, USA). […] Cumulative concentration–response curve was determined to RAMH or tested agonist (10 nM to 10 mM) at increasing concentrations spaced by 3- or 3.3-fold. The agonist potency is expressed as pD2 value (−log EC50) ± sem.

hH3R = biological target: T2, hH3R (Homo sapiens, UniProt Q9Y5N1); experiment: hH3R radioligand displacement binding assay ([3H]-Nα-methylhistamine, HEK-293 cell membranes); settings: for Ki: [3H]-Nα-methylhistamine, HEK-293 membranes, read-out: hH3R -log(Ki) ± sem (converted)
T2 construct: expressed in transfected cells; membrane fractions
T2 sequence (Q9Y5N1 whole entry): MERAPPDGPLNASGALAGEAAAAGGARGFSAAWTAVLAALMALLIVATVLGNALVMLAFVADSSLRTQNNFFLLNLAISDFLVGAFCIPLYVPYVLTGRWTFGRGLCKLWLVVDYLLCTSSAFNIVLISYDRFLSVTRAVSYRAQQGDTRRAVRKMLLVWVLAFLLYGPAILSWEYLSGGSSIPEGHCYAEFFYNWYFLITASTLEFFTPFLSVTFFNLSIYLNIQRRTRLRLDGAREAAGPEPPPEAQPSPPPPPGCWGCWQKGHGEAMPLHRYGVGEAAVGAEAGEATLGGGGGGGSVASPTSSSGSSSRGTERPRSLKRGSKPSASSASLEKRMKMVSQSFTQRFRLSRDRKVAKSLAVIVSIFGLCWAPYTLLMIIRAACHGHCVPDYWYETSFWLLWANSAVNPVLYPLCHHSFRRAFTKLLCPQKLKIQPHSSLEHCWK
Procedure: [^3H]-N^α-Methylhistamine was used as a radiolabeled ligand.
The radioligand displacement binding assay was performed in membrane fractions of HEK-293 cells stably expressing hH3R. Cell cultivation and membrane preparation were performed according to Kottke et al.[43] […] The total assay volume was set to 200 μL. The compounds were tested in several appropriate concentrations between 100 μM and 0.1 nM. Pipetting was partly done by Freedom Evo (Tecan). […] The membrane fraction (20 μg/well), test compounds, and radiolabeled ligand were incubated for 90 min at 25 °C while shaking. The bound radioligand was separated from free radioligand by filtration through GF/B filters pretreated with 0.3% (m/v) polyethylenimine using a cell harvester. Radioactivity was determined by liquid scintillation counting using a MicroBeta Trilux (PerkinElmer). The data were obtained in duplicates in at least three independent experiments. Nonspecific binding was subtracted from the raw data to calculate specific-binding values. The evaluation was performed with GraphPad Prism 6.1 (San Diego, CA, USA) using nonlinear regression (one-site competition with a logarithmic scale). The Ki values were calculated from the IC50 values using the Cheng–Prusoff equation.[44] The statistical calculations were performed on −log Ki. The mean values and 95% confidence intervals were transformed to nanomolar concentrations.

M2R = system: M2R; design: method as in PMID 11421251; settings: cited from earlier work

| Compound | M2R/M3R pA2 gpi ± sem (M2R/M3R) | Kb (H1R [1]) [nM] | Kb (H1R [2]) [nM] | EC50 [3] [nM] | Ki (hH3R) [nM] | Decrease of contractility (-logEC50 ± sem) [3] | intrinsic activity (maximal response as fraction of maximal response of the system) ([3]; from concentration–response curves) | effective dose in the rodent cognition model lower than that known to increase heart rate in rats (M2R) [fold] | Kd (hH3R; radioligand used at 2 nM) [nM] |
| --- | --- | --- | --- | --- | --- | --- | --- | --- | --- |
| C[N+]1(C)CCC(OC(=O)C(c2ccccc2)c2ccccc2)CC1.[I-] [4-DAMP, 1,1-dimethyl-4-diphenylacetoxypiperidinium iodide, reference compound] | 9.05 ±0.11 |  |  |  |  |  |  |  |  |
| N=C(N)N(CCCCN1CCN(Cc2ccc(COc3ccccc3)cc2)CC1)Cc1ccc(C(F)(F)F)cc1 [ADS10183] | 5.83±0.22 | 182 | 151 | 2290 | 1660 |  |  |  |  |
| N=C(N)N(CCCCN1CCN(Cc2ccc(COc3ccccc3)cc2)CC1)Cc1ccccc1 [ADS10185] | 5.77±0.15 | 105 | 100 | 3090 | 1350 |  |  |  |  |
| [H]/N=C(\N)N(CCCCN1CCN(CC2CCC(COc3ccccc3)CC2)CC1)Cc1ccc(C(F)(F)F)cc1 (stereo not drawn) [ADS10207] | 5.68±0.15 | 75.9 | 120 | 724 | 1620 |  |  |  |  |
| N=C(N)N(CCCCN1CCN(Cc2ccc(Oc3ccccc3)cc2)CC1)Cc1ccc(C(F)(F)F)cc1 [ADS10210] | 5.83±0.14 | 60.3 | 97.7 | 575 | 1660 |  |  |  |  |
| N=C(N)N(CCCCN1CCN(C[C@H]2CC[C@H](COc3ccccc3)CC2)CC1)Cc1ccccc1 [ADS10283] | 6.02±0.07 | 145 | 166 | 832 | 2040 |  |  |  |  |
| C[C@@H](N)Cc1c[nH]cn1 [RAMH, (R)(−)-α-methylhistamine, reference compound] |  |  |  |  |  | 7.70±0.07 | 0.82 |  |  |
| COc1ccc(S(=O)(=O)c2ccc(C3(C4CCN(C5CCN(C(=O)c6cccc(C)c6N)CC5)CC4)OCCO3)cc2)cc1 [SCH-217443] |  |  |  |  |  |  |  | 30 |  |
| CNCCc1cnc[nH]1 [[^3H]N^α-methylhistamine, reference compound] |  |  |  |  |  |  |  |  | 3.08 |
